As usually defined, the IC50 is the concentration needed to halve the response being measured. Read a high IC50 as weaker potency in that assay.

For 26 compounds, IC50 results are on record in patent US8877741B2, “Pyrrolidine derivatives, pharmaceutical compositions and uses thereof” (Boehringer Ingelheim International GmbH, priority 2013, dated 2014).

human ACC2, sequence (O00763 129-2458): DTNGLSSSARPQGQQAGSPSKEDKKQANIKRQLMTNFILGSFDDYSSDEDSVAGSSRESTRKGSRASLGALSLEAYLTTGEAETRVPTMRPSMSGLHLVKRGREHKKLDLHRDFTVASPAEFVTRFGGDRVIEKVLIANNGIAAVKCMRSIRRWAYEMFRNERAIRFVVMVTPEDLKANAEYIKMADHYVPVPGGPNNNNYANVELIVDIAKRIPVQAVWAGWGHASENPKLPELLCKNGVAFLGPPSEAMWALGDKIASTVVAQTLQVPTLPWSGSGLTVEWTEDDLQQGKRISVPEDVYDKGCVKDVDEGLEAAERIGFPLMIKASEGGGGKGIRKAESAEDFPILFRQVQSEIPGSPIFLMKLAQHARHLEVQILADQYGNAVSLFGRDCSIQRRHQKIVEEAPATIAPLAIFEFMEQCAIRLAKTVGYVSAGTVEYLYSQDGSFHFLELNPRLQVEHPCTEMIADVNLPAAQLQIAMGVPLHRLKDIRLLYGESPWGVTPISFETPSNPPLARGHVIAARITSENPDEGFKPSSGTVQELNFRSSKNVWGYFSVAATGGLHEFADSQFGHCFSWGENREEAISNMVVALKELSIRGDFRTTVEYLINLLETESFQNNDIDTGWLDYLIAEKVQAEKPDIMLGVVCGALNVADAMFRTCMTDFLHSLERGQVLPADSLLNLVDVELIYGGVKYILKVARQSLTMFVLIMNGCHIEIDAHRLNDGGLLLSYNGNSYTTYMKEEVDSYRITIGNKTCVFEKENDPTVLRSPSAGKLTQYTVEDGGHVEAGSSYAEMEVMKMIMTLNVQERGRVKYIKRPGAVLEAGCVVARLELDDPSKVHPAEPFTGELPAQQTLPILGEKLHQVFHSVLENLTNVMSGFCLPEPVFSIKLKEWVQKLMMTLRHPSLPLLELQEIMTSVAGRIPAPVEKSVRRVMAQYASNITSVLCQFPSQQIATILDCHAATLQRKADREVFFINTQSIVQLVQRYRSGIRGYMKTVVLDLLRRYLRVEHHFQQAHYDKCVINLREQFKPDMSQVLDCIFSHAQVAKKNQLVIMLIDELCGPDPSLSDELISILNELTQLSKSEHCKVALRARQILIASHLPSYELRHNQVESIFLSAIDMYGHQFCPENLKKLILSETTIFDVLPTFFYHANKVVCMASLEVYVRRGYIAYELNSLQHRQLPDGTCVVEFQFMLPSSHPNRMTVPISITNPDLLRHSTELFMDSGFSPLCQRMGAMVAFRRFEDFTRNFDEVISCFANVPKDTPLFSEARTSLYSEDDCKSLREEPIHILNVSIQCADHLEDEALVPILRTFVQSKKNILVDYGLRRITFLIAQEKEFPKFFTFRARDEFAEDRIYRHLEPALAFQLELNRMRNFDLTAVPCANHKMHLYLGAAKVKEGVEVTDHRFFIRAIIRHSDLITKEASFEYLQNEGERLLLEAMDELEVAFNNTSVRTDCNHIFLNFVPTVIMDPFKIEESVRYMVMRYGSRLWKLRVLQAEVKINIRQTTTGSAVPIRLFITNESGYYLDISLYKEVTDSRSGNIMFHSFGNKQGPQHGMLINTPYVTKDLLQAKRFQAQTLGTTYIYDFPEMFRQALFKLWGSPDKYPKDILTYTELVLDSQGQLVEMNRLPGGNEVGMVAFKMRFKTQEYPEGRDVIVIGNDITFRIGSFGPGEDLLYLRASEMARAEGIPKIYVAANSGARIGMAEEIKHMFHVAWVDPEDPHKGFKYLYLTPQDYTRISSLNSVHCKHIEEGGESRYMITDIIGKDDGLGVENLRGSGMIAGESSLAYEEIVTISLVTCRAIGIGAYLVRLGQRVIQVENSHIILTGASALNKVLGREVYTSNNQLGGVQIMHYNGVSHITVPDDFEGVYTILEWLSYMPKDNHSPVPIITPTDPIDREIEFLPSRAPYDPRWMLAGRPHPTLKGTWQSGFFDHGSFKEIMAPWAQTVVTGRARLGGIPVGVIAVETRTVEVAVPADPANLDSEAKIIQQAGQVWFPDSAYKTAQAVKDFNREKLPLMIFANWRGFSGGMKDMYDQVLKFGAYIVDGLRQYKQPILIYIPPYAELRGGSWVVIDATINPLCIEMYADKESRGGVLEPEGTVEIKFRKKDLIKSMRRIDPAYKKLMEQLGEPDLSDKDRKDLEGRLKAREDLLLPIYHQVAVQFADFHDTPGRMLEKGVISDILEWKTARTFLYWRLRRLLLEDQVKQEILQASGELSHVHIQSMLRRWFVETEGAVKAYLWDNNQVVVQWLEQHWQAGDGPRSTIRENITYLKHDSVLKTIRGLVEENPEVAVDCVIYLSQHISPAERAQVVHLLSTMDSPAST

This assay addresses human ACC2 (Homo sapiens (Human), UniProt O00763). In words: ACC2 assay, spectrophotometric 384 well assay (NADH-linked kinetic method). It counts as biochemical. As to conditions: human ACC2 construct lacking the 128 N-terminal amino acids; coupled lactate dehydrogenase/pyruvate kinase reaction, 340 nm, 25° C. How it is done: Spectrophotometric 384 Well Assay
Malonyl CoA formation by acetyl CoA carboxylases is stoichometrically linked to the consumption of ATP. ACC2 activity is measured in a NADH-linked kinetic method measuring ADP generated during the ACC reaction using a coupled lactate dehydrogenase/pyruvate kinase reaction.
For biological testing, a human ACC2 construct which lacks the 128 amino acids at the N-terminus for increased solubility (nt 385-6966 in Genbank entry AJ575592) is cloned. The protein is then expressed in insect cells using a baculoviral expression system. Protein purification is performed by anion exchange.
All compounds are dissolved in dimethyl sulfoxide (DMSO) to a concentration of 10 mM.
The enzymatic reaction is then started by addition of a mixture of NADH, acetyl Coenzyme A (both 2000 μM f.c.) and ATP (500 uM f.c.). The decrease of the optical density (slope S) is then determined at 25° C. at a wavelength of 340 nm over 15 minutes in a spectrophotometric reader.
Each assay microtiter plate contains wells with vehicle instead of compound as controls for the non-inhibited enzyme (100% CTL; ‘HIGH’) and wells without acetyl-CoA as controls for non-specific NADH degradation (0% CTL; ‘LOW’).
The slope S is used for calculation of % CTL=(S(compound)−S(‘LOW’))/(S(‘HIGH’)−S(‘LOW’))*100.
For IC50 value determination, the sample slope in the presence of the test compound after subtraction of the low controls (S(compound)−S(‘LOW’)) are used.
An IC50 value is derived from the compound slopes at different dosages after subtraction of the low controls (S(compound)−S(‘LOW’)) by non-linear regression curve fitting (equation y=(A+((B−A)/(1+((C/x)^D))))).
On to `Cc1nc(N)sc1C(=O)N[C@@H](C)c1ccc(O[C@@H]2CCN(c3ccc(OCC4CC4(F)F)cn3)C2)cc1` (stereo partly drawn) [Example 13, 2-Amino-N—((1S)-1-(4-((3R)-1-(5-((2,2-difluorocyclopropyl)methoxy)pyridin-2-yl)pyrrolidin-3-yloxy)phenyl)ethyl)-4-methylthiazole-5-carboxamide], for which the IC50 is 240 nM. This counts as sub-micromolar.

Regarding `CCCOc1cnc(N2CCC(Oc3ccc([C@H](C)NC(C)=O)cc3)C2)c(C)c1` (some centres unmarked) [Example 1.39], the IC50 worked out at 379 nM. The value for `CCOc1cc(N2CC[C@@H](Oc3ccc([C@H](C)NC(=O)C4CC4)cc3)C2)ccn1` [Example 9.38] was 510 nM. Compound `CC(=O)N[C@@H](C)c1ccc(O[C@@H]2CCN(c3ccnc(OCc4ccncc4)c3)C2)cc1` [Example 9.35] displayed an IC50 of 584 nM. The value for `C[C@H](NC(=O)C1(C)CC1)c1ccc(OC2CCN(c3ccnc(OCC4CC4)c3)C2)cc1` (some centres unmarked) [Example 2.73] was 65 nM; that for `CCCN(C)c1nc(N2CC[C@@H](Oc3ccc([C@H](C)NC(C)=O)cc3)C2)c(F)cc1F` [Example 10.7] was 505 nM.

The compound `C[C@H](NC(=O)c1cnc(N)o1)c1ccc(OC2CCN(c3ccnc(OCC(F)F)c3)C2)cc1` (some centres unmarked) [Example 2.103] registered an IC50 of 523 nM. The IC50 values of the last two compounds are within 1.5-fold of each other.

As for `C[C@H](NC(=O)c1cnco1)c1ccc(OC2CCN(c3ccnc(N4CCC(F)(F)C4)c3F)C2)cc1` (some centres unmarked) [Example 2.126], the IC50 is 45 nM. The value for `C[C@H](NC(=O)N(C)C)c1ccc(OC2CCN(c3ccnc(OCC4CC4(F)F)c3F)C2)cc1` (some centres unmarked) [Example 5.4] was 49 nM. As for `CC(C)Oc1cc(N2CCC(Oc3ccc([C@H](C)NC(=O)N(C)C)cc3)C2)ccn1` (some centres unmarked) [Example 3.2], the figure is 65 nM; as for `CC(=O)N[C@@H](C)c1ccc(OC2CCN(c3ccc(OC(C)C)nc3)C2)cc1` (some centres unmarked) [Example 1.10], 832 nM; as for `Cc1[nH]ncc1C(=O)N[C@@H](C)c1ccc(OC2CCN(c3ccnc(OCC(F)F)c3)C2)cc1` (some centres unmarked) [Example 2.98], 282 nM.

In turn, `CC(=O)N[C@@H](C)c1ccc(O[C@@H]2CCN(c3ccnc(OCc4cccnc4)c3)C2)cc1` [Example 9.30] came in with an IC50 of 402 nM. The IC50 values of the last two compounds are within 1.5-fold of each other. The value for `Cc1nocc1C(=O)N[C@@H](C)c1ccc(OC2CCN(c3ccnc(OC(C)C)c3)C2)cc1` (some centres unmarked) [Example 2.5] was 70 nM.

`C[C@H](NC(=O)[C@@H](C)O)c1ccc(OC2CCN(c3ccnc(OCC4CC4)c3)C2)cc1` (some centres unmarked) [Example 2.68] showed an IC50 of 265 nM. Compared with the last compound, the IC50 is about 3.8-fold higher.

Compound `COC1CCN(c2cccc(N3CC[C@@H](Oc4ccc([C@H](C)NC(C)=O)cc4)C3)n2)CC1` [Example 10.42] returned an IC50 of 759 nM. The value for `C[C@H](NC(=O)c1ccnnc1)c1ccc(OC2CCN(c3ccnc(OCC(F)F)c3)C2)cc1` (some centres unmarked) [Example 2.108] was 714 nM; that for `CCCOc1ccc(N2CC[C@@H](Oc3ccc([C@H](C)NC(=O)c4sc(NC(C)=O)nc4C)cc3)C2)cn1` [Example 1.46] was 149 nM; that for `CC(=O)N[C@@H](C)c1ccc(O[C@@H]2CCN(c3ccnc(OCCO)c3F)C2)cc1` [Example 9.75] was 881 nM. In turn, `CC(=O)N[C@@H](C)c1ccc(OC2CCN(c3ncc(OC(C)C)cc3F)C2)cc1` (some centres unmarked) [Example 1.22] returned an IC50 of 104 nM. The value for `CC(=O)N[C@@H](C)c1ccc(OC2CCN(c3ncc(OC4CC4)cc3F)C2)cc1` (some centres unmarked) [Example 1.67] was 463 nM.

In the case of `CCCNc1nccc(N2CCC(Oc3ccc([C@H](C)NC(=O)N4CCOCC4)cc3)C2)c1F` (some centres unmarked) [Example 5.8], the IC50 was determined as 141 nM. As for `CC(=O)N[C@@H](C)c1ccc(O[C@@H]2CCN(c3ccnc(OCC(C)(C)O)c3Cl)C2)cc1` [Example 9.88], the figure is 177 nM; as for `CCOc1cc(N2CC[C@@H](Oc3ccc([C@H](C)NC(=O)c4sc(NC(C)=O)nc4C)cc3)C2)ccn1` [Example 1.47], 120 nM. The value for `CCc1cccc(N2CCC(Oc3ccc([C@H](C)NC(C)=O)cc3)C2)n1` (some centres unmarked) [Example 1.60] was 202 nM; that for `CC(=O)N[C@@H](C)c1ccc(O[C@@H]2CCN(c3nc(N4CCCC4)c(F)cc3F)C2)cc1` [Example 10.8] was 594 nM.
